Assays:
CDK9 = CDK9 (Homo sapiens (Human), UniProt P50750); test: In vitro kinase inhibition, KinaseProfiler service of Millipore, residual activity; format: biochemical; conditions: for remaining activity at 0.01 µM: residual activity at 10 nM compound, read-out: CDK9 10 nM (RA in %); for remaining activity at 0.1 µM: residual activity at 100 nM compound, read-out: CDK9 100 nM (RA in %)
Description: In vitro kinase assay analysis may be performed using standard techniques described in the art. These techniques are also used by commercial services providers in order to offer in vitro kinase activity assay services, e.g. the assays offered by Millipore Inc. (worldwide website www(dot)millipore.com), ProQinase GmbH (worldwide website www(dot)proqinase.de) and others.
In vitro kinase inhibition results shown in columns 7 to 9 in Table 1 were obtained by employing the KinaseProfiler™ service of Millipore and used to select compounds displaying specificity for CDK9. Specifically, it was intended to distinguish the CDK9-specific compounds from other compounds having significant inhibitory potency also with regard to other CDKs.

[1] = tested on: TNF-alpha inducible reporter gene; test: Inhibition of TNF-alpha-induced reporter gene expression (luciferase) in HeLa-derived cell line; format: cell-based, human; conditions: Homo sapiens, 6 h, remaining luciferase activity in presence of 3 μM of compound as ratio of DMSO-treated cells, TNF-alpha 50 ng/ml, read-out: Efficacy (ratio to DMSO) TNF-alpha induced response
Description: TNF-alpha responsive cell lines like the human HeLa cell line can be used to study cellular responses to TNF-alpha, e.g. transcriptional regulation of a transfected TNF-alpha responsive reporter gene, and effects of kinase inhibitors on this response.
In order to analyse compound effects on TNF-alpha mediated transcriptional response, a HeLa-derived cell line stably transfected with a TNF-alpha inducible reporter gene was used (Panomics Catalog No. RC0013). The cell line was obtained by co-transfection of a luciferase reporter gene (Panomics P/N LR0051) and pHyg into human cervical epithelial HeLa cells, followed by hygromycin selection. TNFα-induced luciferase activity was used to select clones from the hygromycin-resistant cells. The cell line was maintained and stimulated according to the manufacturer's instructions. Briefly, cells were seeded at 5×10^5/well in 1 ml of growth medium in a 12-well plate and incubated in a humidified incubator at 37° C. and 5% CO2 for 24 hours. Medium was replaced with 1 ml of serum free medium and compounds were added up to concentrations of […]. After 1 hour of incubation, TNF-alpha was added to achieve a final concentration of 50 ng/ml. The culture dish was further incubated in a humidified incubator at 37° C. and 5% CO2 for 6 hours, medium was removed and 100 μL of lysis buffer were added to each well and the assay for luciferase activity was performed according to assay manufacturer's (Promega P/N E1500) recommendations. For more information about this cell line, go to worldwide website www(dot)panomics.com.
Compound effects on TNF-alpha-induced reporter gene expression is shown in column 6 in Table 1 given below. Indicated is the remaining luciferase activity after incubation in presence of 3 μM of compound as a ratio of the activity of DMSO-treated cells without compound. Specifically, it was intended to distinguish cell permeable compounds from other compounds having significant inhibitory potency with regard to other CDKs, but fail to penetrate cells or are unstable under the conditions of the experiment.

CDK9, sequence (P50750 whole entry): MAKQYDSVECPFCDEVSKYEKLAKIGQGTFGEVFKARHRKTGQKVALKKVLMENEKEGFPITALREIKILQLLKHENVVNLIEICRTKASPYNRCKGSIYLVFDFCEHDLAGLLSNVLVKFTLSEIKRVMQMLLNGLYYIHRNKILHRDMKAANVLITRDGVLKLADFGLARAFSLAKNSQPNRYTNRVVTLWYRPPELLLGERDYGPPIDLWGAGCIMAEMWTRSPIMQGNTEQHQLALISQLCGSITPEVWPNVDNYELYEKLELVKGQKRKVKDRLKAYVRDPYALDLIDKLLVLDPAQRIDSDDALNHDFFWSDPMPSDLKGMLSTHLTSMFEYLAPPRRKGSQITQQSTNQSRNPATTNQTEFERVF
CDK9, sequence (O60563 whole entry partner): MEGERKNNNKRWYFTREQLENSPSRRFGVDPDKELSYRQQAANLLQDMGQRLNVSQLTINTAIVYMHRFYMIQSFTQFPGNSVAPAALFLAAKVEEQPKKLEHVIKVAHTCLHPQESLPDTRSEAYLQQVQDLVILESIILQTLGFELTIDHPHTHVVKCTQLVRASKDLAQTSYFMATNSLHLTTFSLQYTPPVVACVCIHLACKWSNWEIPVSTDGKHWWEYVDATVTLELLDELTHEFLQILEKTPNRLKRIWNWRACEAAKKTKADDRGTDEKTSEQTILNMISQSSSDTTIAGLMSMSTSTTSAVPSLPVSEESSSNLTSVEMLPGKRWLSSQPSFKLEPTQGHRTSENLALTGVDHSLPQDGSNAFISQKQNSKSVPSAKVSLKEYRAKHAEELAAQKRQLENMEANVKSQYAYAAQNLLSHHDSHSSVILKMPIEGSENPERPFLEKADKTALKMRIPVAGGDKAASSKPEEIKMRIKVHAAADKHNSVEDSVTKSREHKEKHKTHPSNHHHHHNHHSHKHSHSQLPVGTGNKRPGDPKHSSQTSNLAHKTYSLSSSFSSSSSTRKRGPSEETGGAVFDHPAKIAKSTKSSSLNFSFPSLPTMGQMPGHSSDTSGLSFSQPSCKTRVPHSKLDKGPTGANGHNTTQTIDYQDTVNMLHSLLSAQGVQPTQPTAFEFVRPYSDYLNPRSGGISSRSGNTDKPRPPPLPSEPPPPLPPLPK

Row | SMILES | remaining activity at 0.01 µM (CDK9) [%] | remaining activity at 0.1 µM (CDK9) [%] | activity at 3 µM [1] [%]
1 | COc1cc(F)ccc1-c1ccnc(NC(=O)C(C)c2ccc(N3CCN(C)CC3)cc2)c1 (stereo not drawn) [Example 27, N-(4-(4-Fluoro-2-methoxyphenyl)pyridin-2-yl)-2-(4-(4-methylpiperazin-1-yl)phenyl)propanamide] | 65 | 8 | 8
2 | COc1cc(F)ccc1-c1ccnc(NC(=O)C(C)Cc2ccc(N3CCN(C)CC3)cc2)c1 (stereo not drawn) [Example 28, 2-(4-(4-Methylpiperazin-1-yl)benzyl)-N-(4-(4-fluoro-2-methoxyphenyl)-pyridin-2-yl)propanamide] | 88 | 49 | 121
3 | COc1cc(F)ccc1-c1ccnc(NC(=O)[C@H]2CC[C@@H](Nc3ccccn3)CC2)c1 [Example 30, N-(4-(4-Fluoro-2-methoxyphenyl)pyridin-2-yl)-4-(pyridin-2-ylamino)-cis-cyclohexanecarboxamide] | 29 | 4 | 3
4 | COc1cc(F)ccc1-c1ccnc(NC(=O)[C@H]2CC[C@@H](Nc3ccncc3)CC2)c1 [Example 32, cis-N-(4-(4-Fluoro-2-methoxyphenyl)pyridin-2-yl)-4-(pyridin-4-ylamino)-cyclohexanecarboxamide] | 34 | 4 | 4
5 | COc1cc(F)ccc1-c1ccnc(NC(=O)[C@@H]2CC[C@H](NC(C)=O)C2)c1 [Example 34, (1R,3S)-3-Acetamido-N-(4-(4-fluoro-2-methoxyphenyl)pyridin-2-yl)cyclopentanecarboxamide] | 50 | 8 | 7
6 | COc1cc(F)ccc1-c1ccnc(NC(=O)[C@H]2CC[C@@H](Nc3nccs3)CC2)c1 [Example 35, cis-N-(4-(4-Fluoro-2-methoxyphenyl)pyridin-2-yl)-4-(thiazol-2-ylamino)-cyclohexanecarboxamide] | 36 | 4 | 2
7 | COc1cc(F)ccc1-c1ccnc(NC(=O)[C@H]2CC[C@@H](Nc3ccccc3)CC2)c1 [Example 36, cis-N-(4-(4-Fluoro-2-methoxyphenyl)pyridin-2-yl)-4-(phenylamino)-cyclohexanecarboxamide] | 59 | 12 | 26
8 | COc1cc(F)ccc1-c1ccnc(NC(=O)[C@@H]2CC[C@H](NCc3ccccc3)C2)c1 [Example 37, (1R,3S)-3-(Benzylamino)-N-(4-(4-fluoro-2-methoxyphenyl)pyridin-2-yl)cyclopentanecarboxamide] | 20 | 2 | 2
9 | COc1cc(F)ccc1-c1ccnc(NC(=O)[C@H]2CC[C@@H](NCc3ccccc3)CC2)c1 [Example 38, cis-4-(Benzylamino)-N-(4-(4-fluoro-2-methoxyphenyl)pyridin-2-yl)cyclo-hexanecarboxamide] | 65 | 4 | 2
10 | COc1cc(F)ccc1-c1ccnc(NC(=O)[C@@H]2CCC[C@H](NC(C)=O)C2)c1 [Example 40, (1R,3S)-3-Acetamido-N-(4-(4-fluoro-2-methoxyphenyl)pyridin-2-yl)cyclohexanecarboxamide] | 89 | 38 | 46

Continued, in another order:

Row | remaining activity at 0.01 µM (CDK9) [%] | remaining activity at 0.1 µM (CDK9) [%] | SMILES | activity at 3 µM [1] [%]
11 | 95 | 39 | COc1cc(F)ccc1-c1ccnc(NC(=O)CC(C)c2ccc(N3CCN(C)CC3)cc2)c1 (stereo not drawn) [Example 29, N-(4-(4-Fluoro-2-methoxyphenyl)pyridin-2-yl)-3-(4-(4-methylpiperazin-1-yl)phenyl)butanamide] | 105
12 | 58 | 8 | COc1cc(F)ccc1-c1ccnc(NC(=O)Cc2ccnc(N3CCN(C)CC3)c2)c1 [Example 31, N-(4-(4-Fluoro-2-methoxyphenyl)pyridin-2-yl)-2-(2-(4-methylpiperazin-1-yl)pyridin-4-yl)acetamide] | 4
13 | 60 | 6 | COc1cc(F)ccc1-c1ccnc(NC(=O)[C@@H]2CC[C@H](Nc3ccccc3)C2)c1 [Example 39, (1R,3S)—N-(4-(4-Fluoro-2-methoxyphenyl)pyridin-2-yl)-3-(phenylamino)-cyclopentanecarboxamide] | 5
14 | 38 | 8 | COc1cc(F)ccc1-c1ccnc(NC(=O)[C@H]2CC[C@@H](NC(C)=O)C2)c1 [Example 41, (1S,3R)-3-Acetamido-N-(4-(4-fluoro-2-methoxyphenyl)pyridin-2-yl)cyclopentanecarboxamide] | 3

From patent US9067888B2, “Inhibitors of protein kinases” (Ingenium Pharmaceuticals GmbH, priority 2010, dated 2015)
